We go through 4 compounds from patent US12508300B2, “Acylated GLP-1 derivative” (Sciwind Biosciences Co., Ltd., priority 2019, dated 2025).

The target in one test is T1, GLP1R (Homo sapiens, UniProt P43220).
T1 construct: expressed in transfected cells; host or cells: HEK293
Description: In vitro activity determination in HEK293/CRE-Luc/GLP1R cells (luciferase reporter). It is filed as cell-based. The protocol: Based on the fact that GLP-1 may bind to the receptor on the cell membrane, the HEK293/CRE-Luc/GLPIR cell line is constructed, the CAMP response elements (CRE) are activated through a series of signal transduction, the expression of downstream luciferase is initiated, and the amount of its expression is positively correlated with the biological activity of GLP-1. After adding the luciferase substrate, the chemiluminescence assay is performed to determine the luminous intensity, thereby determining the biological activity of GLP-1.
96-well cell culture plate (white and opaque), DMEM medium (GIBCO), 0.05% TRYPSIN-EDTA (GIBCO), fetal bovine serum (GIBCO), G418, hygromycin B, Bright-Glo™ Luciferase Assay System Kit (Promega), and HEK293/CRE-luc/GLP1R cells.
(1) Cell preparation: the cells are cultured until they grow vigorously and reach a sufficient quantity, discarding the culture medium in the culture bottle, adding 3 ml of Versene solution and shaking once; then adding 2 ml of 0.05% TRYPSIN-EDTA digestion solution, covering the bottle and standing for 1 minute, and then adding 6 ml of the assay medium to quench the digestion; after centrifugation at 1000 r/min for 3 min, the supernatant is discarded, and the cells are resuspended in 5 ml of assay medium and counted on a hemacytometer. The cell density is adjusted to an appropriate range for later use by using DMEM assay medium.
(2) Sample preparation: the derivatives of different GLP-1 analogues in Table 1 are diluted to 20 ng/ml with the assay medium, then gradient diluted into 8 concentrations in 96-well plates, and using the assay medium instead of the sample as the cell blank control. 2 duplicate wells are made for each dilution concentration.
(3) Culturing with addition of the samples: the prepared solutions of the control and test samples are transferred to a 96-well cell culture plate (white board), adding 50 μl of the solution to each well; then adding the prepared cell suspension, adding 50 μl of the suspension to each well; and then incubating for a certain period of time under the conditions of 37° C. and 5% CO2.
(4) Chemiluminescence assay: substrate is added, then taking out the 96-well cell culture plate, adding 100 μl of Bright Glo reagent to each well, and leaving in the dark for 3 min.
(5) Reading: determination is performed with a chemiluminescence microplate reader SpectraMax L, then reading the plate within 30 min, and recording the determined results.

For another test, the system named is db/db mice. As to the kind of experiment: Fasting blood glucose after single injection in type II diabetic db/db mice (FIG. 1). It is filed as in vivo. Particulars: 0.05 mg/kg s.c. single. As to the method:
The dosage is 0.05 mg/kg for each, and the administration time is set as 0 h. Fasting blood glucose is measured after fasting for 6-8 h every day, and the fasting blood glucose after administration is measured every day until the fasting blood glucose value of each animal of the test group recovers to the value measured before administration. The blood glucose value measured before administration is called the basal blood glucose value, and is set as 0. Change of the fasting blood glucose (Δ: delta)=Blood glucose value after administration-Basal blood glucose value before administration.

The structures appear in SMILES notation. *1 amine or outer side, *2 acyl side, *3 side chain or, on linkers, in order; H or OH if unused. Where a SMILES comes first, the peptide text is derived from it. Side-chain parts run from the residue outwards. The star is where a group is joined. C18 diacid = O=C(O)CCCCCCCCCCCCCCCCC(=O)*; γGlu = O=C(O)[C@H](CCC(=O)[*:2])N[*:1]; AEEA = NCCOCCOCC(=O)O

T1 sequence (P43220 24-463, species assumed): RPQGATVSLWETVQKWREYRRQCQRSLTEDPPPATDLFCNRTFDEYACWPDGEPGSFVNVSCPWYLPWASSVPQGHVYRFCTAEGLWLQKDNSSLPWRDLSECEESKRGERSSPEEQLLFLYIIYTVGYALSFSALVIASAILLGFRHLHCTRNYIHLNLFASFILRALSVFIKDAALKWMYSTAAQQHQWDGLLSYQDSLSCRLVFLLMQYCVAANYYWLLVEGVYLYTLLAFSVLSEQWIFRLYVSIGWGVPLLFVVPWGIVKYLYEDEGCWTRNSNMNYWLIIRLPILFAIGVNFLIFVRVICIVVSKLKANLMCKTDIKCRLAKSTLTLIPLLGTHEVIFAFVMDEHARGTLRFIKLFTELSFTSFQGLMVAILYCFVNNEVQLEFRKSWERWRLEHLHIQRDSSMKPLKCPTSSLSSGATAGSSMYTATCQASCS

On to `CC[C@H](C)[C@H](NC(=O)[C@H](Cc1ccccc1)NC(=O)[C@H](CCC(=O)O)NC(=O)[C@H](CCCNC(=N)N)NC(=O)[C@H](C)NC(=O)[C@H](C)NC(=O)[C@H](CCCCNC(=O)COCCOCCNC(=O)COCCOCCNC(=O)CC[C@H](NC(=O)CCCCCCCCCCCCCCCCC(=O)O)C(=O)O)NC(=O)[C@H](CCC(=O)O)NC(=O)[C@H](CCC(=O)O)NC(=O)[C@H](CC(C)C)NC(=O)[C@H](Cc1ccc(O)cc1)NC(=O)[C@H](CO)NC(=O)[C@H](CO)NC(=O)[C@@H](NC(=O)[C@H](CC(=O)O)NC(=O)[C@H](CO)NC(=O)[C@@H](NC(=O)[C@H](Cc1ccccc1)NC(=O)[C@@H](NC(=O)CNC(=O)[C@H](CCC(=O)O)NC(=O)[C@@H](NC(=O)[C@@H](N)Cc1c[nH]cn1)[C@@H](C)CC)[C@@H](C)O)[C@@H](C)O)C(C)C)C(=O)N[C@@H](C)C(=O)N[C@@H](Cc1c[nH]c2ccccc12)C(=O)N[C@@H](CC(C)C)C(=O)N[C@H](C(=O)N[C@@H](CCCNC(=N)N)C(=O)NCC(=O)N[C@@H](CCCNC(=N)N)C(=O)NCC(=O)O)C(C)C` [M9, N-ε^23-[2-(2-[2-(2-[2-(2-[4-(17-carboxyheptadecanoylamino)-4(s)-carboxybutyrylamino]ethoxy)ethoxy]acetylamino)ethoxy]ethoxy)acetyl](Ile^8Glu^22Lys^23Arg^26,34-GLP-1 (7-37)) peptide] (H-HIEGTFTSDVSSYLEEK([AEEA-AEEA-γGlu-C18 diacid])AAREFIAWLVRGRG-OH; N-terminus and C-terminus assumed), for which, at GLP1R, the “in vitro activities (comparison in words)” value (“in vitro activities” below) is “comparable”. In addition, the “glucose-lowing effect compared with Semaglutide (FIG. 1)” value in the test on db/db mice (day 4 and day 5) was “better than that of Semaglutide”.
In the case of `CC[C@H](C)[C@H](NC(=O)[C@H](Cc1ccccc1)NC(=O)[C@H](CCC(=O)O)NC(=O)[C@H](CCCNC(=N)N)NC(=O)[C@H](C)NC(=O)[C@H](C)NC(=O)[C@H](CCCCNC(=O)COCCOCCNC(=O)COCCOCCNC(=O)CC[C@H](NC(=O)CCCCCCCCCCCCCCCCC(=O)O)C(=O)O)NC(=O)[C@H](CCC(=O)O)NC(=O)[C@H](CCC(=O)O)NC(=O)[C@H](CC(C)C)NC(=O)[C@H](Cc1ccc(O)cc1)NC(=O)[C@H](CO)NC(=O)[C@H](CO)NC(=O)[C@@H](NC(=O)[C@H](CC(=O)O)NC(=O)[C@H](CO)NC(=O)[C@@H](NC(=O)[C@H](Cc1ccccc1)NC(=O)[C@@H](NC(=O)CNC(=O)[C@H](CCC(=O)O)NC(=O)CNC(=O)[C@@H](N)Cc1c[nH]cn1)[C@@H](C)O)[C@@H](C)O)C(C)C)C(=O)N[C@@H](C)C(=O)N[C@@H](Cc1c[nH]c2ccccc12)C(=O)N[C@@H](CC(C)C)C(=O)N[C@H](C(=O)N[C@@H](CCCNC(=N)N)C(=O)NCC(=O)N[C@@H](CCCNC(=N)N)C(=O)NCC(=O)O)C(C)C` [M11, N-ε^23-[2-(2-[2-(2-[2-(2-[4-(17-carboxyheptadecanoylamino)-4(s)-carboxybutyrylamino]ethoxy)ethoxy]acetylamino)ethoxy]ethoxy)acetyl](Gly^8Glu^22Lys^23Arg^26,34-GLP-1(7-37)) peptide] (H-HGEGTFTSDVSSYLEEK([AEEA-AEEA-γGlu-C18 diacid])AAREFIAWLVRGRG-OH; N-terminus and C-terminus assumed), the “in vitro activities” value on GLP1R is given as “comparable”. In addition, in the test on db/db mice (day 2), the “glucose-lowing effect compared with Semaglutide (FIG. 1)” value is given as “lower than that of Semaglutide”.
As to `CC[C@H](C)[C@H](NC(=O)[C@H](Cc1ccccc1)NC(=O)[C@H](CCC(=O)O)NC(=O)[C@H](CCCNC(=N)N)NC(=O)[C@H](C)NC(=O)[C@H](C)NC(=O)[C@H](CCC(N)=O)NC(=O)[C@H](CCC(=O)O)NC(=O)[C@H](CCC(=O)O)NC(=O)[C@H](CC(C)C)NC(=O)[C@H](Cc1ccc(O)cc1)NC(=O)[C@H](CO)NC(=O)[C@H](CO)NC(=O)[C@@H](NC(=O)[C@H](CC(=O)O)NC(=O)[C@H](CO)NC(=O)[C@@H](NC(=O)[C@H](Cc1ccccc1)NC(=O)[C@@H](NC(=O)CNC(=O)[C@H](CCC(=O)O)NC(=O)[C@@H](NC(=O)[C@@H](N)Cc1c[nH]cn1)[C@@H](C)CC)[C@@H](C)O)[C@@H](C)O)C(C)C)C(=O)N[C@@H](CCCCNC(=O)COCCOCCNC(=O)COCCOCCNC(=O)CC[C@H](NC(=O)CCCCCCCCCCCCCCCCC(=O)O)C(=O)O)C(=O)N[C@@H](Cc1c[nH]c2ccccc12)C(=O)N[C@@H](CC(C)C)C(=O)N[C@H](C(=O)N[C@@H](CCCNC(=N)N)C(=O)NCC(=O)N[C@@H](CCCNC(=N)N)C(=O)NCC(=O)O)C(C)C` [M14, N-ε^30-[2-(2-[2-(2-[2-(2-[4-(17-carboxyheptadecanoylamino)-4(s)-carboxybutyrylamino]ethoxy)ethoxy]acetylamino)ethoxy]ethoxy)acetyl](Ile^8Glu^22Lys^30Arg^26,34-GLP-1(7-37)) peptide] (H-HIEGTFTSDVSSYLEEQAAREFIK([AEEA-AEEA-γGlu-C18 diacid])WLVRGRG-OH; N-terminus and C-terminus assumed), the “in vitro activities” value on GLP1R is “comparable”. Moreover, the “glucose-lowing effect compared with Semaglutide (FIG. 1)” value in the test with db/db mice (day 4 and day 5) is “better than that of Semaglutide”.
As to `CC[C@H](C)[C@H](NC(=O)[C@H](Cc1ccccc1)NC(=O)[C@H](CCC(=O)O)NC(=O)[C@H](CCCNC(=N)N)NC(=O)[C@H](C)NC(=O)[C@H](C)NC(=O)[C@H](CCC(N)=O)NC(=O)[C@H](CCC(=O)O)NC(=O)[C@H](CCC(=O)O)NC(=O)[C@H](CC(C)C)NC(=O)[C@H](Cc1ccc(O)cc1)NC(=O)[C@H](CO)NC(=O)[C@H](CO)NC(=O)[C@@H](NC(=O)[C@H](CC(=O)O)NC(=O)[C@H](CO)NC(=O)[C@@H](NC(=O)[C@H](Cc1ccccc1)NC(=O)[C@@H](NC(=O)CNC(=O)[C@H](CCC(=O)O)NC(=O)CNC(=O)[C@@H](N)Cc1c[nH]cn1)[C@@H](C)O)[C@@H](C)O)C(C)C)C(=O)N[C@@H](CCCCNC(=O)COCCOCCNC(=O)COCCOCCNC(=O)CC[C@H](NC(=O)CCCCCCCCCCCCCCCCC(=O)O)C(=O)O)C(=O)N[C@@H](Cc1c[nH]c2ccccc12)C(=O)N[C@@H](CC(C)C)C(=O)N[C@H](C(=O)N[C@@H](CCCNC(=N)N)C(=O)NCC(=O)N[C@@H](CCCNC(=N)N)C(=O)NCC(=O)O)C(C)C` [M16, N-ε^30-[2-(2-[2-(2-[2-(2-[4-(17-carboxyheptadecanoylamino)-4(s)-carboxybutyrylamino]ethoxy)ethoxy]acetylamino)ethoxy]ethoxy)acetyl](Gly^8Glu^22Lys^30Arg^26,34-GLP-1(7-37)) peptide] (H-HGEGTFTSDVSSYLEEQAAREFIK([AEEA-AEEA-γGlu-C18 diacid])WLVRGRG-OH; N-terminus and C-terminus assumed), the “in vitro activities” value at GLP1R is given as “comparable”. In the test with db/db mice (day 2), the “glucose-lowing effect compared with Semaglutide (FIG. 1)” value is listed as “lower than that of Semaglutide”.
